Measured values taken from ChEMBL document CHEMBL1201862, “PubChem BioAssay data set” (2004).
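These data come from cells grown in 96-well plates and exposed to compound for 48 hours at five concentrations. Abbreviation: GI50, concentration required for 50% inhibition of growth.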 The source made the active and inactive calls. Rule as the data show it: active = GI50 up to about 1.1 µM and inactive = higher.

Columns and labels:
Experiment in all cases: NCI anticancer screen, dose series, 48 h
BT-549 = system: BT-549
CAKI-1 = system: CAKI-1
HL-60 = system: HL-60
UACC-257 = system: UACC-257
MDA-MB-231 = system: MDA-MB-231
SK-MEL-28 = system: SK-MEL-28
SN12C = system: SN12C
SK-OV-3 = system: SK-OV-3
SF-295 = system: SF-295
SK-MEL-5 = system: SK-MEL-5
A549 = system: A549
SNB-75 = system: SNB-75
Hs-578T = system: Hs-578T
HT-29 = system: HT-29
Malme-3M = system: Malme-3M
A498 = system: A498
MDA-MB-435 = system: MDA-MB-435
U-251 = system: U-251
DU-145 = system: DU-145

Measured: GI50

Cc1cc2c(cc1Cl)SC(NNc1ccc([N+](=O)[O-])cc1)=NS2(=O)=O
inactive: BT-549 > 10 µM | CAKI-1 > 10 µM | HL-60 > 10 µM | UACC-257 > 10 µM | MDA-MB-231 > 10 µM | SK-MEL-28 > 10 µM | SN12C > 10 µM | SK-OV-3 > 10 µM | SF-295 > 10 µM | SK-MEL-5 > 10 µM | A549 > 10 µM | SNB-75 > 10 µM | Hs-578T > 10 µM | HT-29 > 10 µM | Malme-3M > 10 µM | A498 > 10 µM | MDA-MB-435 > 10 µM | U-251 > 10 µM | DU-145 > 10 µM

CSc1nc(SC)c2c(CN=[N+]=[N-])c(Br)n(Cc3ccccc3)c2n1
inactive: BT-549 > 100 µM | CAKI-1 > 100 µM | HL-60 62.1 µM | MDA-MB-231 52.7 µM | SK-MEL-28 > 100 µM | SN12C > 100 µM | SK-OV-3 24.1 µM | SF-295 36.1 µM | SK-MEL-5 > 100 µM | A549 > 100 µM | SNB-75 51.3 µM | Hs-578T 53.1 µM | HT-29 23 µM | Malme-3M > 100 µM | A498 > 100 µM | MDA-MB-435 55.7 µM | U-251 71.9 µM | DU-145 > 100 µM

Nc1ncnc2c1ccn2CC#CCO
inactive: BT-549 > 100 µM | CAKI-1 > 100 µM | HL-60 93.8 µM | UACC-257 > 100 µM | MDA-MB-231 > 100 µM | SK-MEL-28 > 100 µM | SN12C > 100 µM | SK-OV-3 > 100 µM | SF-295 > 100 µM | SK-MEL-5 > 100 µM | A549 > 100 µM | SNB-75 > 100 µM | Hs-578T > 100 µM | HT-29 > 100 µM | Malme-3M > 100 µM | A498 > 100 µM | MDA-MB-435 > 100 µM | U-251 > 100 µM | DU-145 > 100 µM

CN(CCCN(C)Cc1ccc(Cl)c(Cl)c1)CCN1CCCC1
inactive: BT-549 30.8 µM | CAKI-1 29.2 µM | HL-60 23.4 µM | UACC-257 2.62 µM | MDA-MB-231 13.1 µM | SK-MEL-28 1.93 µM | SN12C 37.8 µM | SK-OV-3 75.3 µM | SF-295 21.7 µM | SK-MEL-5 6.92 µM | A549 19.1 µM | SNB-75 19.1 µM | Hs-578T 17.7 µM | HT-29 4.13 µM | Malme-3M 15.8 µM | A498 13.9 µM | MDA-MB-435 3.33 µM | U-251 16.8 µM | DU-145 62.1 µM
